Where two headings read alike, the source gives them in different places.
What was measured:
[1] = biological target: SHP-2 enzyme (Met1-Leu525) (Homo sapiens (Human), UniProt Q06124); assay: SHP2 inhibition enzymatic assay; assay type: biochemical; settings: 0.5 nM SHP-2 activated by 500 nM IRS1 peptide, 75 μM DiFMUP substrate; read-out: SHP2wt-IC50
Method in brief: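 SHP-2 (Met1-Leu525), 0.5 nM, activated with 500 nM IRS1 bis-phosphopeptide, preincubated 30 min with compounds in HEPES pH 7.2 buffer with 5 mM DTT. 75 μM DiFMUP added for 30 min at room temperature, stopped with bpV; fluorescence read. IC50 from four-parameter logistic fit of % inhibition.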

[2] = test system: ERK phosphorylation in KYSE-520 cells; assay: Phospho-ERK cellular assay; assay type: cell-based; settings: KYSE-520 cells, 2 h at 37° C., phospho-ERK1/2 (Thr202/Tyr204) TR-FRET, read-out: PERK IC50
Method in brief: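 TR-FRET read-out of ERK1/2 Thr202/Tyr204 phosphorylation was taken after overnight antibody incubation at room temperature. Before that, KYSE-520 cells were treated 2 h at 37 °C with compound dilutions and lysed 30 min. Percent inhibition relative to vehicle and cell-free wells was fitted four-parametrically to give IC50.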

SHP-2 enzyme (Met1-Leu525), sequence (Q06124 1-525): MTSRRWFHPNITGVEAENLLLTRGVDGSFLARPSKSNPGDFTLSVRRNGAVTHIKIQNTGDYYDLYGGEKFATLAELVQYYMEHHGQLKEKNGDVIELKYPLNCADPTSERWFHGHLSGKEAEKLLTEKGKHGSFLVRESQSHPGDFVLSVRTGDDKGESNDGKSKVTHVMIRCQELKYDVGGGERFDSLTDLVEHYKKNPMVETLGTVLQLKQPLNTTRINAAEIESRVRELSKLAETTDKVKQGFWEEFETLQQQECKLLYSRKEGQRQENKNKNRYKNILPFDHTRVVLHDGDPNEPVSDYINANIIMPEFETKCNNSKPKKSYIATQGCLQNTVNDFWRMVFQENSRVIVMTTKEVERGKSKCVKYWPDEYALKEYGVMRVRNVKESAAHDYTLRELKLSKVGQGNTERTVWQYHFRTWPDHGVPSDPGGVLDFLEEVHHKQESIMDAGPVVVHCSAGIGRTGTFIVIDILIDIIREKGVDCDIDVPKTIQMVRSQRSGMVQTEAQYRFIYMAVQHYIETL

| SMILES | IC50 [1] [nM] | IC50 ([2]; Homo sapiens, KYSE-520, 2 h) [nM] | IC50 [2] [nM] | IC50 ([2]; Homo sapiens) [nM] |
| --- | --- | --- | --- | --- |
| Cc1csc(C2(CN)C3CCN(c4nc5[nH]nc(-c6cccc7ncccc67)c5nc4CO)CC32)n1 (stereo not shown) [Example 101, (6-(7-(aminomethyl)-7-(4-methylthiazol-2-yl)-3-azabicyclo[4.1.0]heptan-3-yl)-3-(quinolin-5-yl)-1H-pyrazolo[3,4-b]pyrazin-5-yl)methanol] | < 500 | < 1000 |  |  |
| CN(C)C(=O)Cn1cc2c(Cl)c(-c3n[nH]c4nc(N5CC[C@@H]6[C@H](C5)[C@@]6(CN)c5ccccc5F)cnc34)ccc2n1 [Example 428] | < 500 |  | < 1000 |  |
| Cc1cc([C@@]2(CN)[C@@H]3CCN(c4cnc5c(-c6cccc7c6OCCO7)n[nH]c5n4)C[C@@H]32)no1 [Example 40, ((1S,6R,7S)-3-(3-(2,3-dihydrobenzo[b][1,4]dioxin-5-yl)-1H-pyrazolo[3,4-b]pyrazin-6-yl)-7-(5-methylisoxazol-3-yl)-3-azabicyclo[4.1.0]heptan-7-yl)methanamine] | < 500 | < 1000 |  |  |
| Cc1csc([C@@]2(CN)[C@@H]3CN(c4cnc5c(-c6ccc(-n7cccn7)cc6Cl)n[nH]c5n4)C[C@@H]32)n1 [Example 283, ((1R,5S,6r)-3-(3-(2-chloro-4-(1H-pyrazol-1-yl)phenyl)-1H-pyrazolo[3,4-b]pyrazin-6-yl)-6-(4-methylthiazol-2-yl)-3-azabicyclo[3.1.0]hexan-6-yl)methanamine] | < 500 |  |  | < 1000 |
| Cc1cc([C@@]2(CN)[C@@H]3CCN(c4cnc5c(-c6ccnc7c(F)cccc67)n[nH]c5n4)C[C@@H]32)no1 [Example 114, ((1S,6R,7S)-3-(3-(8-fluoroquinolin-4-yl)-1H-pyrazolo[3,4-b]pyrazin-6-yl)-7-(5-methylisoxazol-3-yl)-3-azabicyclo[4.1.0]heptan-7-yl)methanamine] | < 500 | < 1000 |  |  |
| Cc1cc([C@@]2(CN)[C@@H]3CCN(c4cnc5c(-c6cncc7ncccc67)n[nH]c5n4)C[C@@H]32)no1 [Example 148, ((1S,6R,7S)-3-(3-(1,7-naphthyridin-5-yl)-1H-pyrazolo[3,4-b]pyrazin-6-yl)-7-(5-methylisoxazol-3-yl)-3-azabicyclo[4.1.0]heptan-7-yl)methanamine] | < 500 | < 1000 |  |  |
| Cc1nc2ccc(-c3n[nH]c4nc(N5CC[C@@H]6[C@H](C5)[C@@]6(CN)c5ccon5)cnc34)c(Cl)c2s1 [Example 124, ((1S,6R,7S)-3-(3-(7-chloro-2-methylbenzo[d]thiazol-6-yl)-1H-pyrazolo[3,4-b]pyrazin-6-yl)-7-(isoxazol-3-yl)-3-azabicyclo[4.1.0]heptan-7-yl)methanamine] | < 500 | < 1000 |  |  |
| CN(C)C(=O)Cn1ncc2c(Cl)c(-c3n[nH]c4nc(N5CC[C@@H]6[C@H](C5)[C@@]6(CN)c5ccccc5F)cnc34)ccc21 [Example 432] | < 500 |  | < 1000 |  |
| Cc1cccc([C@@]2(CN)[C@@H]3CCN(c4cnc5c(-c6ccc7nn(C)cc7c6C)n[nH]c5n4)C[C@@H]32)c1F [Example 184, ((1S,6R,7R)-3-(3-(2,4-dimethyl-2H-indazol-5-yl)-1H-pyrazolo[3,4-b]pyrazin-6-yl)-7-(2-fluoro-3-methylphenyl)-3-azabicyclo[4.1.0]heptan-7-yl)methanamine] | < 500 | < 1000 |  |  |
| NC[C@]1(c2ccccc2F)[C@@H]2CCN(c3cnc4c(-c5cccc6c5CC(=O)N6)n[nH]c4n3)C[C@@H]21 [Example 122, 4-(6-((1S,6R,7R)-7-(aminomethyl)-7-(2-fluorophenyl)-3-azabicyclo[4.1.0]heptan-3-yl)-1H-pyrazolo[3,4-b]pyrazin-3-yl)indolin-2-one] | < 500 | < 1000 |  |  |
| NC[C@]1(c2ccccc2F)[C@@H]2CCN(c3cnc4c(-c5ccc6c(c5)CC(=O)N6)n[nH]c4n3)C[C@@H]21 [Example 187, 5-(6-((1S,6R,7R)-7-(aminomethyl)-7-(2-fluorophenyl)-3-azabicyclo[4.1.0]heptan-3-yl)-1H-pyrazolo[3,4-b]pyrazin-3-yl)indolin-2-one] | < 500 | < 1000 |  |  |
| COc1ncccc1-c1n[nH]c2nc(N3CCC4C(C3)C4(CN)c3cc(C)on3)cnc12 (stereo not shown) [Example 28, (3-(3-(2-methoxypyridin-3-yl)-1H-pyrazolo[3,4-b]pyrazin-6-yl)-7-(5-methylisoxazol-3-yl)-3-azabicyclo[4.1.0]heptan-7-yl)methanamine] | < 500 | > 5000 |  |  |

Continued, in another order:

| IC50 [1] [nM] | IC50 ([2]; Homo sapiens, KYSE-520, 2 h) [nM] | SMILES | IC50 [2] [nM] | IC50 ([2]; Homo sapiens) [nM] |
| --- | --- | --- | --- | --- |
| < 500 | < 1000 | Cn1cc2c(Cl)c(-c3n[nH]c4nc(N5CC[C@@H]6[C@H](C5)[C@@]6(CN)c5cc(F)cc(F)c5)n(C)c(=O)c34)ccc2n1 [Example 344, 6-((1S,6R,7R)-7-(aminomethyl)-7-(3,5-difluorophenyl)-3-azabicyclo[4.1.0]heptan-3-yl)-3-(4-chloro-2-methyl-2H-indazol-5-yl)-5-methyl-1,5-dihydro-4H-pyrazolo[3,4-d]pyrimidin-4-one] |  |  |
| < 500 | < 1000 | Cc1c(-c2n[nH]c3nc(N4CC[C@@H]5[C@H](C4)[C@@]5(CN)c4ccccc4F)cnc23)cnn1C [Example 348, ((1S,6R,7R)-3-(3-(1,5-dimethyl-1H-pyrazol-4-yl)-1H-pyrazolo[3,4-b]pyrazin-6-yl)-7-(2-fluorophenyl)-3-azabicyclo[4.1.0]heptan-7-yl)methanamine] |  |  |
| < 500 | < 1000 | NC[C@]1(c2ccccc2F)[C@@H]2CCN(c3cnc4c(-c5ccc(O)c(C(F)(F)F)c5)n[nH]c4n3)C[C@@H]21 [Example 360, 4-(6-((1S,6R,7R)-7-(aminomethyl)-7-(2-fluorophenyl)-3-azabicyclo[4.1.0]heptan-3-yl)-1H-pyrazolo[3,4-b]pyrazin-3-yl)-2-(trifluoromethyl)phenol] |  |  |
| < 500 | < 1000 | Cn1c(=O)n(C)c2cc(-c3n[nH]c4nc(N5CC[C@@H]6[C@H](C5)[C@@]6(CN)c5ccccc5F)cnc34)ccc21 [Example 232, 5-(6-((1S,6R,7R)-7-(aminomethyl)-7-(2-fluorophenyl)-3-azabicyclo[4.1.0]heptan-3-yl)-1H-pyrazolo[3,4-b]pyrazin-3-yl)-1,3-dimethyl-1,3-dihydro-2H-benzo[d]imidazol-2-one] |  |  |
| < 500 |  | Cc1nc(N2CC[C@@H]3[C@H](C2)[C@@]3(CN)c2cc(F)ccc2F)cc(=O)n1-c1cccc(Cl)c1Cl [Example 412, 6-((1S,6R,7R)-7-(aminomethyl)-7-(2,5-difluorophenyl)-3-azabicyclo[4.1.0]heptan-3-yl)-3-(2,3-dichlorophenyl)-2-methylpyrimidin-4(3H)-one] | < 1000 |  |
| < 500 | > 5000 | NC[C@]1(c2ccccc2F)[C@@H]2CCN(c3cnc4c(-c5ccc(S(N)(=O)=O)cc5Cl)n[nH]c4n3)C[C@@H]21 [Example 346, 4-(6-((1S,6R,7R)-7-(aminomethyl)-7-(2-fluorophenyl)-3-azabicyclo[4.1.0]heptan-3-yl)-1H-pyrazolo[3,4-b]pyrazin-3-yl)-3-chlorobenzenesulfonamide] |  |  |
| < 500 | < 1000 | NC[C@]1(c2ccccc2F)[C@@H]2CCN(c3cnc4c(-c5ccc6cn[nH]c(=O)c6c5)n[nH]c4n3)C[C@@H]21 [Example 254, 7-(6-((1S,6R,7R)-7-(aminomethyl)-7-(2-fluorophenyl)-3-azabicyclo[4.1.0]heptan-3-yl)-1H-pyrazolo[3,4-b]pyrazin-3-yl)phthalazin-1(2H)-one] |  |  |
| < 500 | < 1000 | Cc1nccc(-c2n[nH]c3nc(N4CC[C@@H]5[C@H](C4)[C@@]5(CN)c4ccccc4F)cnc23)c1Cl [Example 189, ((1S,6R,7R)-3-(3-(3-chloro-2-methylpyridin-4-yl)-1H-pyrazolo[3,4-b]pyrazin-6-yl)-7-(2-fluorophenyl)-3-azabicyclo[4.1.0]heptan-7-yl)methanamine] |  |  |
| < 500 | < 1000 | NC[C@]1(c2ccccc2F)[C@@H]2CCN(c3cnc4c(-c5cnc6ccccn56)n[nH]c4n3)C[C@@H]21 [Example 224, ((1S,6R,7R)-7-(2-fluorophenyl)-3-(3-(imidazo[1,2-a]pyridin-3-yl)-1H-pyrazolo[3,4-b]pyrazin-6-yl)-3-azabicyclo[4.1.0]heptan-7-yl)methanamine] |  |  |
| < 500 | < 1000 | Cc1c(-c2ccc3nc(N4CC[C@@H]5[C@H](C4)[C@@]5(CN)c4ccccc4F)cnc3n2)ccc2nn(C)cc12 [Example 425, ((1S,6R,7R)-3-(6-(2,4-dimethyl-2H-indazol-5-yl)pyrido[2,3-b]pyrazin-2-yl)-7-(2-fluorophenyl)-3-azabicyclo[4.1.0]heptan-7-yl)methanamine] |  |  |
| < 500 | < 1000 | Cc1ccc2c(-c3n[nH]c4nc(N5CC[C@@H]6[C@H](C5)[C@@]6(CN)c5ccccc5F)cnc34)ccc(F)c2n1 [Example 226, ((1S,6R,7R)-3-(3-(8-fluoro-2-methylquinolin-5-yl)-1H-pyrazolo[3,4-b]pyrazin-6-yl)-7-(2-fluorophenyl)-3-azabicyclo[4.1.0]heptan-7-yl)methanamine] |  |  |

Source: US20240109900A1, “AZABICYCLIC SHP2 INHIBITORS” (IRBM S.P.A., priority 2021, published 2024)
